Assay results from patent publication US8492559B2, “Substituted indole compounds” (Gruenenthal GmbH, priority 2009, dated 2013).

Each compound was assayed against T1, B1R receptor of the rat (rB1R) (Rattus norvegicus, UniProt P97583) (assay: Functional investigation on the bradykinin 1 receptor (B1R), FLIPR Ca2+ assay, rB1R cells). Details: CHO-K1, 10 μM test substance; CHO K1 cells with rat B1R; agonist Des-Arg9 bradykinin; % of maximum achievable inhibition; read-out: B1R antagonism, rat [10 μM] % inhibition.
T1 construct: expressed in transfected cells; host or cells: CHO K1 cells
T1 sequence (P97583 1-337): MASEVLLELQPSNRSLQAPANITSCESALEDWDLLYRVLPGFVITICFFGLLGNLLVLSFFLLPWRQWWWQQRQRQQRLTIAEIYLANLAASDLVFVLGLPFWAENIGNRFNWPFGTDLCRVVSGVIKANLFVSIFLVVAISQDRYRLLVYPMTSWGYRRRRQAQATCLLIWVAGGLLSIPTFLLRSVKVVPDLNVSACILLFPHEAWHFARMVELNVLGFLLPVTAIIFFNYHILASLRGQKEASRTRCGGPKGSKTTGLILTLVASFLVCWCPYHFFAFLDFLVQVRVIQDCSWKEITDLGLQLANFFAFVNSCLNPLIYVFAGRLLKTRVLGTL
Format: cell-based
Protocol: The indication in % activation is based on the Ca^2+ signal after addition of Lys-Des-[…] bradykinin (0.5 nM) or Des-[…] bradykinin (100 nM). Antagonists lead to a suppression of the Ca^2+ influx following administration of the agonist. The % inhibition in comparison with the maximum achievable inhibition is indicated. […] According to this assay, the Ca^2+ inflow through the channel is quantified with the aid of a Ca^2+-sensitive dye (Fluo-4 type, Molecular Probes Europe BV, Leiden, Netherlands) in a fluorescent imaging plate reader (FLIPR, Molecular Devices, Sunnyvale, USA). […] For functional investigations these cells are plated-out onto black 96-well plates with a clear base (BD Biosciences, Heidelberg, Germany or Greiner, Frickenhausen, Germany) in a density of 20,000-35,000 cells/well. Overnight the cells are incubated at 37° C. and 5% CO2 in culture medium (hB1R cells: Ham's Nutrient Mixture F12, Gibco Invitrogen GmbH, Karlsruhe, Germany or DMEM, Sigma-Aldrich, Taufkirchen, Germany; rB1R cells: D-MEM/F12, Gibco Invitrogen, Karlsruhe, Germany) with 10 vol. % FBS (foetal bovine serum, Gibco Invitrogen GmbH, Karlsruhe, Germany or PAN Biotech GmbH, Aidenbach, Germany). On the following day the cells are loaded with 2.13 μM Fluo-4 (Molecular Probes Europe BV, Leiden, Netherlands) in HBSS buffer (Hank's buffered saline solution, Gibco Invitrogen GmbH, Karlsruhe, Germany) with 2.5 mM probenecid (Sigma-Aldrich, Taufkirchen, Germany) and 10 mM HEPES (Sigma-Aldrich, Taufkirchen, Germany) for 60 min at 37° C. […] Sigma-Aldrich, Taufkirchen, Germany), 5.6 mM glucose and 0.05% gelatine (Merck KGaA, Darmstadt, Germany) is added. After a further incubation of 20 minutes at room temperature, the plates are inserted into the FLIPR for Ca^2+ measurement. Alternatively they are washed with buffer A (15 mM HEPES, 80 mM NaCl, 5 mM KCl, 1.2 mM CaCl2, 0.7 mM MgSO4, 2 g/l glucose, 2.5 mM probenecid) and loaded with buffer A with added 2.5 μM Fluo-4 and 0.025% Pluronic F127 (Sigma-Aldrich, Taufkirchen, Germany). The cells are then washed twice with buffer A and incubated for 30 minutes with buffer A, which additionally contains 0.05% BSA and 0.05% gelatine, at room temperature and then used for Ca^2+ measurement in the FLIPR. The Ca^2+-dependent fluorescence is measured here before and after addition of substances (λex=488 nm, λem=540 nm). The quantification is performed by measuring the highest fluorescence intensity (FC, fluorescence counts) over time. The FLIPR protocol comprises two additions of substance. […] Lys-Des-[…] bradykinin>=50 nM; rB1R: […] Antagonists lead to a suppression of the Ca^2+ inflow. The % inhibition in comparison with the maximum achievable inhibition is calculated. The substances are added in varying concentrations in order to determine the IC50 value. Double or triple determinations (n=2 or n=3) are performed and these are repeated in at least one further independent experiment (N>=2).

Row | inhibition at 10 µM [%] | SMILES
1 | 65 | O=C(CCn1ccc2ccc(N3Cc4cccc(Cl)c4C3=O)cc21)N1CCC(O)(c2cccnc2)CC1 [G_CC-69, 7-Chloro-2-[1-[3-(4-hydroxy-4-pyridin-3-yl-piperidin-1-yl)-3-oxo-propyl]-1H-indol-6-yl]-2,3-dihydro-isoindol-1-one]
2 | 65 | COc1cc(C)c(S(=O)(=O)Nc2ccc3ccn(CC(=O)NCC4CCN(c5ccncc5)CC4)c3c2)c(C)c1 [G_CC-9, 2-[6-[[(4-Methoxy-2,6-dimethyl-phenyl)sulfonyl]amino]-1H-indol-1-yl]-N-[(1-pyridin-4-yl-piperidin-4-yl)-methyl]-acetamide]
3 | 66 | COc1cc(C)c(S(=O)(=O)Nc2cccc3ccn(CCC(=O)N4CCC(N5CCN(C)CC5)CC4)c23)c(C)c1 [G_CC-42, 4-Methoxy-2,6-dimethyl-N-[1-[3-[4-(4-methyl-piperazin-1-yl)-piperidin-1-yl]-3-oxo-propyl]-1H-indol-7-yl]-benzenesulfonic acid amide]
4 | 65 | Cc1cc(S(=O)(=O)Nc2ccc3ccn(CC(=O)N(C)CCCN4CCC(c5ccccc5)(N(C)C)CC4)c3c2)c(C)cc1Cl [G_CC-15, 2-[6-[[(4-Chloro-2,5-dimethyl-phenyl)sulfonyl]amino]-1H-indol-1-yl]-N-[3-(4-dimethylamino-4-phenyl-piperidin-1-yl)-propyl]-N-methyl-acetamide]
5 | 73 | COc1cc(C)c(S(=O)(=O)Nc2cccc3ccn(CCC(=O)N4CCN(CCCN(C)C)CC4)c23)c(C)c1 [G_CC-44, N-[1-[3-[4-(3-Dimethylamino-propyl)-piperazin-1-yl]-3-oxo-propyl]-1H-indol-7-yl]-4-methoxy-2,6-dimethyl-benzenesulfonic acid amide]
6 | 50 | COc1cc(C)c(S(=O)(=O)Nc2cccc3ccn(CC(=O)N4CCN(C(=O)c5cccnc5)CC4)c23)c(C)c1 [G_CC-139, 4-Methoxy-2,6-dimethyl-N-[1-[2-oxo-2-[4-(pyridin-3-carbonyl)-piperazin-1-yl]-ethyl]-1H-indol-7-yl]-benzenesulfonic acid amide]
7 | 81 | Cc1cc(S(=O)(=O)Nc2cccc3ccn(CC(=O)N(C)CCCN4CCC(c5cccs5)(N(C)C)CC4)c23)c(C)cc1Cl [G_CC-26, 2-[7-[[(4-Chloro-2,5-dimethyl-phenyl)sulfonyl]amino]-1H-indol-1-yl]-N-[3-(4-dimethylamino-4-thiophen-2-yl-piperidin-1-yl)-propyl]-N-methyl-acetamide]
8 | 102 | COc1cc(C)c(S(=O)(=O)Nc2cccc3ccn(CC(=O)N4CCC(c5cccc(F)c5)(N5CCN(C)CC5)CC4)c23)c(C)c1 [G_CC-84, N-[1-[2-[4-(3-Fluorophenyl)-4-(4-methyl-piperazin-1-yl)-piperidin-1-yl]-2-oxo-ethyl]-1H-indol-7-yl]-4-methoxy-2,6-dimethyl-benzenesulfonic acid amide]
9 | 59 | COc1cc(C)c(S(=O)(=O)Nc2cccc3ccn(CC(=O)N4CCN(c5ccc(F)cc5)CC4)c23)c(C)c1 [G_CC-5, N-[1-[2-[4-(4-fluorophenyl)-piperazin-1-yl]-2-oxo-ethyl]-1H-indol-7-yl]-4-methoxy-2,6-dimethyl-benzenesulfonic acid amide]
10 | 78 | CN1CCN(C2(c3cccc(F)c3)CCN(CCN(C)C(=O)Cn3ccc4ccc(N5Cc6cccc(Cl)c6C5=O)cc43)CC2)CC1 [G_CC-113, 2-[6-(4-Chloro-3-oxo-1,2-dihydro-isoindol-2-yl)-1H-indol-1-yl]-N-[2-[4-(3-fluorophenyl)-4-(4-methyl-piperazin-1-yl)-piperidin-1-yl]-ethyl]-N-methyl-acetamide]
11 | 89 | Cc1cc(S(=O)(=O)Nc2ccc3ccn(CC(=O)NCCC4CCN(c5ccncc5)CC4)c3c2)c(C)cc1Cl [G_CC-24, 2-[6-[[(4-Chloro-2,5-dimethyl-phenyl)sulfonyl]amino]-1H-indol-1-yl]-N-[2-(1-pyridin-4-yl-piperidin-4-yl)-ethyl]-acetamide]
12 | 98 | COc1cc(C)c(S(=O)(=O)Nc2cccc3ccn(CC(=O)N4CCC(Oc5ccncc5)CC4)c23)c(C)c1 [G_CC-92, 4-Methoxy-2,6-dimethyl-N-[1-[2-oxo-2-(4-pyridin-4-yloxy-piperidin-1-yl)-ethyl]-1H-indol-7-yl]-benzenesulfonic acid amide]
13 | 55 | Cc1cc(S(=O)(=O)Nc2cccc3ccn(CCC(=O)NCCN4CCC(c5cccs5)(N(C)C)CC4)c23)c(C)cc1Cl [G_CC-73, 3-[7-[[(4-Chloro-2,5-dimethyl-phenyl)sulfonyl]amino]-1H-indol-1-yl]-N-[2-(4-dimethylamino-4-thiophen-2-yl-piperidin-1-yl)-ethyl]-propionamide]
14 | 86 | O=C(CCn1ccc2cccc(N3Cc4cccc(Cl)c4C3=O)c21)N1CCC2(CC1)CCN(c1ccncc1)CC2 [G_CC-106, 7-Chloro-2-[1-[3-oxo-3-(3-pyridin-4-yl-3,9-diazaspiro[5.5]undecan-9-yl)-propyl]-1H-indol-7-yl]-2,3-dihydro-isoindol-1-one]
15 | 59 | COc1cc(C)c(S(=O)(=O)Nc2ccc3ccn(CCC(=O)NCCN4CCC(c5cccs5)(N(C)C)CC4)c3c2)c(C)c1 [G_CC-22, N-[2-(4-Dimethylamino-4-thiophen-2-yl-piperidin-1-yl)-ethyl]-3-[6-[[(4-methoxy-2,6-dimethyl-phenyl)sulfonyl]amino]-1H-indol-1-yl]-propionamide]
16 | 68 | COc1cc(C)c(S(=O)(=O)Nc2cccc3ccn(CC(=O)NCCN4CCC(c5cccs5)(N(C)C)CC4)c23)c(C)c1 [G_CC-19, N-[2-(4-Dimethylamino-4-thiophen-2-yl-piperidin-1-yl)-ethyl]-2-[7-[[(4-methoxy-2,6-dimethyl-phenyl)sulfonyl]amino]-1H-indol-1-yl]-acetamide]
17 | 92 | COc1cc(C)c(S(=O)(=O)Nc2cccc3ccn(CCC(=O)N(C)CCCN4CCC(c5ccccc5)(N(C)C)CC4)c23)c(C)c1 [G_CC-49, N-[3-(4-Dimethylamino-4-phenyl-piperidin-1-yl)-propyl]-3-[7-[[(4-methoxy-2,6-dimethyl-phenyl)sulfonyl]amino]-1H-indol-1-yl]-N-methyl-propionamide]
18 | 54 | Cc1cc(S(=O)(=O)Nc2ccc3ccn(CCC(=O)NCCC4CCN(c5ccncc5)CC4)c3c2)c(C)cc1Cl [G_CC-71, 3-[6-[[(4-Chloro-2,5-dimethyl-phenyl)sulfonyl]amino]-1H-indol-1-yl]-N-[2-(1-pyridin-4-yl-piperidin-4-yl)-ethyl]-propionamide]
19 | 61 | CN1CCN(C2(c3cccc(F)c3)CCN(C(=O)Cn3ccc4ccc(N5Cc6cccc(Cl)c6C5=O)cc43)CC2)CC1 [G_CC-128, 7-Chloro-2-[1-[2-[4-(3-fluorophenyl)-4-(4-methyl-piperazin-1-yl)-piperidin-1-yl]-2-oxo-ethyl]-1H-indol-6-yl]-2,3-dihydro-isoindol-1-one]

Row | SMILES | inhibition at 10 µM [%]
20 | COc1cc(C)c(S(=O)(=O)Nc2cccc3ccn(CC(=O)N4CCC(c5cccs5)(N(C)C)CC4)c23)c(C)c1 [G_CC-20, N-[1-[2-(4-Dimethylamino-4-thiophen-2-yl-piperidin-1-yl)-2-oxo-ethyl]-1H-indol-7-yl]-4-methoxy-2,6-dimethyl-benzenesulfonic acid amide] | 86
